Measured values published in patent publication US10428080B2, “TBK/IKK inhibitor compounds and uses thereof” (Merck Patent GmbH, priority 2015, dated 2019).
Where two headings read alike, the source gives them in different places.

Assays:
TBK1 = molecular target: T1, TBK1 (Homo sapiens, UniProt Q9UHD2); assay: TBK Biochemical Assay; settings: read-out: TBK1 IC50
T1 sequence (Q9UHD2 1-729): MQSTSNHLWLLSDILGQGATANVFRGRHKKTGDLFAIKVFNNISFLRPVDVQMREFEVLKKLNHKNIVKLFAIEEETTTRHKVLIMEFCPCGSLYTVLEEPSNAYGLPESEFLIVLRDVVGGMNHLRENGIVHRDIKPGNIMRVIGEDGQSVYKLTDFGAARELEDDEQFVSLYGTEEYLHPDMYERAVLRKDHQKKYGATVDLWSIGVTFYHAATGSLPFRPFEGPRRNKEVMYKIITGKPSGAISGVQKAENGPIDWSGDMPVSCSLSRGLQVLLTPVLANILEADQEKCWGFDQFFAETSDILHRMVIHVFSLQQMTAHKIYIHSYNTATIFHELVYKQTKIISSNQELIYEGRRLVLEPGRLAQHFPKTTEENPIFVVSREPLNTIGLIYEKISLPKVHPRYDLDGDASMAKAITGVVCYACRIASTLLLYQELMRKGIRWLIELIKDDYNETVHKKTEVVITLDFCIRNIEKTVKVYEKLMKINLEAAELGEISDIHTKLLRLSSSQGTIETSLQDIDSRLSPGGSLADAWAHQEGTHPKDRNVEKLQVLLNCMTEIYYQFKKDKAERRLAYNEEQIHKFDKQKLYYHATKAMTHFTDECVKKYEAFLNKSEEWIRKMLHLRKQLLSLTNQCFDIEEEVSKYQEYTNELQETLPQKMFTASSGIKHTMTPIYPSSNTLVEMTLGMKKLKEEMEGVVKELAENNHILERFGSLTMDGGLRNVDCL
How it was run: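 Caliper LabChip mobility-shift readout of substrate and product after 90 min of TBK1 reaction at 25° C and stop-buffer addition. Compounds tested in 1:4 serial dilution over 10 points from 30 uM final at 1% DMSO; staurosporine 10 uM final defines full inhibition.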

IKKε = molecular target: T2, IKKε (Homo sapiens, UniProt Q14164); assay: IKKe Biochemical Assay; settings: read-out: IKKε IC50
T2 sequence (Q14164 1-716): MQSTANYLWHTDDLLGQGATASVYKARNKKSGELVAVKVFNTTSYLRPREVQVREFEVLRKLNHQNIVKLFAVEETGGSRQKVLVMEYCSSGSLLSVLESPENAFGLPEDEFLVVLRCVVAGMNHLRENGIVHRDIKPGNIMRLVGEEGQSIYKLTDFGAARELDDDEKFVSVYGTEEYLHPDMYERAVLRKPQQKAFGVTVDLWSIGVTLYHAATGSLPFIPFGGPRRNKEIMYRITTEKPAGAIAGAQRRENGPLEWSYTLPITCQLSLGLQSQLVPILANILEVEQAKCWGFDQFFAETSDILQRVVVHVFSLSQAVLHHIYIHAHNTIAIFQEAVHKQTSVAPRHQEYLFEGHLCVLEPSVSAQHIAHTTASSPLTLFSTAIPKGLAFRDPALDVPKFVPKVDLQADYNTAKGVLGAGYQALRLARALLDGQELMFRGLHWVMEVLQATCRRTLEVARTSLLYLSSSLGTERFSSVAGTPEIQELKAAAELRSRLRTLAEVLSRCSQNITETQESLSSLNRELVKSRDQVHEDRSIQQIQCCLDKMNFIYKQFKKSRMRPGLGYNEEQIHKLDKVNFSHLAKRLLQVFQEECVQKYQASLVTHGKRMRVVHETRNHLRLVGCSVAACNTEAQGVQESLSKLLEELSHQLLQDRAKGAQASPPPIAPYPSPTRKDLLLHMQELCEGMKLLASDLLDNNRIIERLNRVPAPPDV
How it was run: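 Activity was measured as mobility-shift separation of phosphorylated from unphosphorylated substrate on a LabChip EZ Reader. Compound was titrated from 30 uM final in 10 points, 1:4 steps, with 1% DMSO, and enzyme plus substrate reacted 90 min at 25° C before stop buffer. Control wells held 10 uM staurosporine.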

[1] = test system: phosphorylation of the IRF-3 protein in MDA-MB-468 cells; assay: pIRF3 immunocytochemistry cell based assay
How it was run: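 After 2 h stimulation with Poly(I:C) (10 ug/ml), following 1 h compound pre-treatment (10-point, 3-fold dilution, top 10 uM), MDA-MB-468 cells were fixed and stained with anti-pIRF3 antibody. pIRF3 fluorescence was normalized to PI staining or cell count on an Acumen cytometer. IC50 curves were derived from this.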

[2] = Homo sapiens, MDA-MB-468 cells, Poly(I:C) stimulation, read-out: pIRF3 IC50

Structure (SMILES) | IC50 (TBK1) [nM] | IC50 (IKKε) [nM] | IC50 [1, 2] [nM] | IC50 ([1]; MDA-MB-468 cells, Poly(I:C) stimulation, read-out: pIRF3 IC50) [nM] | IC50 ([1]; Homo sapiens, MDA-MB-468, read-out: pIRF3 IC50) [nM]
COc1cc(C(=O)N2CC[C@@H](N(C)C)C2)cnc1-c1cc2nccc(-c3ccc(N4CC[C@@H](F)C4)c(C#N)c3)c2o1 [Compound 456, 5-[2-(5-[[(3R)-3-(dimethylamino)pyrrolidin-1-yl]carbonyl]-3-methoxypyridin-2-yl) (R)-furo[3,2-b]pyridin-7-yl]-2-(3-fluoropyrrolidin-1-yl)benzonitrile] | < 100 | < 100 | < 100 |  | 
COc1cc(C(=O)N2CC[C@@H](N(C)C)C2)ncc1-c1cc2nccc(-c3ccc(N4CCC(F)C4)c(C#N)c3)c2o1 (stereo partly drawn) [Compound 457, 5-[2-(6-[[(3R)-3-(dimethylamino)pyrrolidin-1-yl]carbonyl]-4-methoxypyridin-3-yl)furo[3,2-b]pyridin-7-yl]-2-(3-fluoropyrrolidin-1-yl)benzonitrile] | < 100 | < 100 | < 100 |  | 
COc1cc(C(=O)N2CC[C@@H](N(C)C)C2)ncc1-c1cc2nccc(-c3ccc(N4CC[C@@H](F)C4)c(C#N)c3)c2o1 [Compound 459, 5-[2-(6-[[(3R)-3-(dimethylamino)pyrrolidin-1-yl]carbonyl]-4-methoxypyridin-3-yl)furo[3,2-b]pyridin-7-yl]-2-[(3R)-3-fluoropyrrolidin-1-yl]benzonitrile] | < 100 | < 100 | < 100 |  | 
COc1cc(C(=O)N2CCN(C)CC2)cnc1-c1cc2nccc(-c3ccc(N4CCC(F)C4)c(C#N)c3)c2o1 (stereo not drawn) [Compound 460, 2-(3-fluoropyrrolidin-1-yl)-5-(2-[3-methoxy-5-[(4-methylpiperazin-1-yl)carbonyl]pyridin-2-yl]furo[3,2-b]pyridin-7-yl)benzonitrile] | < 100 | < 100 | 100 to 1000 |  | 
COc1cc(C(=O)N2CCN(C)CC2)cnc1-c1cc2nccc(-c3ccc(N4CC[C@H](F)C4)c(C#N)c3)c2o1 [Compound 461, 2-(3(S)-fluoropyrrolidin-1-yl)-5-(2-[3-methoxy-5-[(4-methylpiperazin-1-yl)carbonyl]pyridin-2-yl]furo[3,2-b]pyridin-7-yl)benzonitrile] | < 100 | < 100 | < 100 |  | 
COc1cc(C(=O)N2CCN(C)CC2)cnc1-c1cc2nccc(-c3ccc(N4CC[C@@H](F)C4)c(C#N)c3)c2o1 [Compound 462, 2-(3(R)-fluoropyrrolidin-1-yl)-5-(2-[3-methoxy-5-[(4-methylpiperazin-1-yl)carbonyl]pyridin-2-yl]furo[3,2-b]pyridin-7-yl)benzonitrile] | < 100 | < 100 | < 100 |  | 
COc1cc(C(=O)N2CCN(C)CC2)ncc1-c1cc2nccc(-c3ccc(N4CC[C@H](F)C4)c(C#N)c3)c2o1 [Compound 463, 2-((S)-3-Fluoro-pyrrolidin-1-yl)-5-{2-[4-methoxy-6-(4-methyl-piperazine-1-carbonyl)-pyridin-3-yl]-furo[3,2-b]pyridin-7-yl}-benzonitrile] | < 100 | < 100 | < 100 |  | 
COc1cc(-c2cc3nccc(-c4ccc(OC5CCOCC5)c(C#N)c4)c3o2)ccc1C(=O)N(C)C [Compound 470, 4-[7-[3-cyano-4-(oxan-4-yloxy)phenyl]furo[3,2-b]pyridin-2-yl]-2-methoxy-N,N-dimethylbenzamide] | < 100 | < 100 |  |  | 100 to 1000
COc1cc(C(=O)N(C)C2CN3CCC2CC3)ccc1-c1cc2nccc(-c3ccc(OC4CCOCC4)c(C#N)c3)c2o1 (stereo not drawn) [Compound 472, N-(1-Aza-bicyclo[2.2.2]oct-3-yl)-4-{7-[3-cyano-4-(tetrahydro-pyran-4-yloxy)-phenyl]-furo[3,2-b]pyridin-2-yl}-3-methoxy-N-methyl-benzamide] | < 100 | < 100 | < 100 |  | 

The next lines start with results.

IC50 (TBK1) [nM] | IC50 (IKKε) [nM] | IC50 [1, 2] [nM] | IC50 ([1]; MDA-MB-468 cells, Poly(I:C) stimulation, read-out: pIRF3 IC50) [nM] | Structure (SMILES) | IC50 ([1]; Homo sapiens, MDA-MB-468, read-out: pIRF3 IC50) [nM]
< 100 | < 100 | 100 to 1000 |  | COc1cc(C(=O)NC2C3COCC32)cnc1-c1cc2nccc(-c3ccc(N4CC[C@@H](F)C4)c(C#N)c3)c2o1 (stereo partly drawn) [Compound 466, 6-{7-[3-Cyano-4-((R)-3-fluoro-pyrrolidin-1-yl)-phenyl]-furo[3,2-b]pyridin-2-yl}-5-methoxy-N-(3-oxa-bicyclo[3.1.0]hex-6-yl)-nicotinamide] | 
< 100 | < 100 |  | 100 to 1000 | COc1cc(C(=O)NC2C3COCC32)cnc1-c1cc2nccc(-c3ccc(N4CC[C@H](F)C4)c(C#N)c3)c2o1 (stereo partly drawn) [Compound 467, 6-{7-[3-Cyano-4-((S)-3-fluoro-pyrrolidin-1-yl)-phenyl]-furo[3,2-b]pyridin-2-yl}-5-methoxy-N-(3-oxa-bicyclo[3.1.0]hex-6-yl)-nicotinamide] | 
100 to 1000 | 100 to 1000 | 1000 to 5000 |  | COc1cc(C(=O)N(C)C)ccc1-c1cc2nccc(-c3ccc(NC4CC(C)(C)OC(C)(C)C4)c(C#N)c3)c2o1 [Compound 471, 4-(7-[3-cyano-4-[(2,2,6,6-tetramethyloxan-4-yl)amino]phenyl]furo[3,2-b]pyridin-2-yl)-3-methoxy-N,N-dimethylbenzamide] | 
< 100 | < 100 | < 100 |  | COc1cc(C(=O)N(C)CCN2CCCC2)ccc1-c1cc2nccc(-c3ccc(OC4CCOCC4)c(C#N)c3)c2o1 [Compound 473, 4-{7-[3-Cyano-4-(tetrahydro-pyran-4-yloxy)-phenyl]-furo[3,2-b]pyridin-2-yl}-3-methoxy-N-methyl-N-(2-pyrrolidin-1-yl-ethyl)-benzamide] | 
< 100 | < 100 | < 100 |  | COc1cc(C(=O)N2CC3C2CCN3C)ccc1-c1cc2nccc(-c3ccc(OC4CCOCC4)c(C#N)c3)c2o1 (stereo not drawn) [Compound 474, 5-{2-[2-Methoxy-4-(2-methyl-2,6-diaza-bicyclo[3.2.0]heptane-6-carbonyl)-phenyl]-furo[3,2-b]pyridin-7-yl}-2-(tetrahydro-pyran-4-yloxy)-benzonitrile] | 
< 100 | < 100 | 100 to 1000 |  | COc1cc(C(=O)NC2(CO)CCCC2)ccc1-c1cc2nccc(-c3ccc(OC4CCOCC4)c(C#N)c3)c2o1 [Compound 475, 4-{7-[3-Cyano-4-(tetrahydro-pyran-4-yloxy)-phenyl]-furo[3,2-b]pyridin-2-yl}-N-(1-hydroxymethyl-cyclopentyl)-3-methoxy-benzamide] | 
< 100 | < 100 | 100 to 1000 |  | COc1cc(C(=O)N[C@H]2CCCC[C@H]2O)ccc1-c1cc2nccc(-c3ccc(OC4CCOCC4)c(C#N)c3)c2o1 [Compound 476, 4-{7-[3-Cyano-4-(tetrahydro-pyran-4-yloxy)-phenyl]-furo[3,2-b]pyridin-2-yl}-N-((1S,2R)-2-hydroxy-cyclohexyl)-3-methoxy-benzamide] | 
< 100 | < 100 | 100 to 1000 |  | COc1cc(C(=O)NCCN2CCC2)ccc1-c1cc2nccc(-c3ccc(OC4CCOCC4)c(C#N)c3)c2o1 [Compound 477, N-(2-Azetidin-1-yl-ethyl)-4-{7-[3-cyano-4-(tetrahydro-pyran-4-yloxy)-phenyl]-furo[3,2-b]pyridin-2-yl}-3-methoxy-benzamide] | 
